Test results published in patent US20260174862A1, “PHARMACEUTICAL COMPOSITION COMPRISING PRMT5 INHIBITOR AND PD-1/PD-L1 INHIBITOR” (APEIRON THERAPEUTICS (HONG KONG) LTD., priority 2024, published 2026).

Test system: DuNN MTAP KO cells
Assay: In vivo pharmacodynamic study in C3H mouse model of tibial orthotopic xenograft with DuNN MTAP KO cells
Conditions: for Tumor volume (mean): tibial orthotopic DuNN MTAP KO tumor, compound D 1 mg/kg PO QD, PD-1 antibody 5 mg/kg I.P. QW, n=6
Protocol: Example 1: In Vivo Pharmacodynamic Study of Compound D in C3H Mouse Model of Tibial Orthotopic Xenograft with DuNN MTAP KO Cells
Cell culture: […] DuNN MTAP KO cells (provided by the Experimental Animal Center of Shanghai First People's Hospital) were cultured in vitro monolayer under the conditions of adding 10% fetal bovine serum and 1% Antibiotic-Antimycotic to DMEM medium, and culturing in a 5% CO2 incubator at 37° C. Pancreatin-EDTA was used twice a week for routine digestion and passage. When the cell saturation is 80%-90% and the number of cells reached the requirement, the cells were collected, counted, and inoculated.
Animals: C3H normal mice, female, 4-6 weeks old, weighing 18-22 g. A total of 30 animals were required (24 enrolled, surplus).
Tumor inoculation: DUNN cells were digested with 0.25% pancreatin-EDTA solution to make them into a single cell suspension, washed with PBS buffer and the cell density was adjusted to 1×10^7/ml for further use. On the day of the experiment, mice were intraperitoneally injected with 0.5% sodium pentobarbital solution at a dose of 40 mg/kg to anesthetize them. A bone hole with a diameter of about 1 mm was drilled in the upper end of the right hindlimb tibia with a 1 ml syringe to reach the marrow cavity. Be careful not to penetrate the contralateral cortical bone and cause fractures or bleeding. A 1 ml syringe and a 25 G needle were used to draw the DUNN cell suspension and it was slowly injected into the tibial bone marrow cavity of the experimental group mice at a dose of 30 μl. Be careful not to cause cell reflux or leakage. After injection, the surgical field was disinfected with 75% alcohol, and the mice were returned to their cages, covered with sterile dressings, kept warm until they woke up, and then continued to be housed for observation. Randomized dosing began when the average tumor volume reached about 150 mm^3. At the end of the experiment, mice were intraperitoneally injected with 0.5% sodium pentobarbital solution at a dose of 120 mg/kg to euthanize them. Their tibia and tumor tissues were removed, fixed with 10% formaldehyde, paraffin sections were made, stained with HE, and the histological morphology and invasion of the tumors were observed under a microscope. The expression of proliferation indicators such as Ki-67 and PCNA in tumor cells was detected by immunohistochemistry.
Administering volume: 10 μL/g based on the weight of mice. If the weight loss exceeds 15%, stop administering immediately and resume it after the weight loss returns to less than 10%.
Animal grouping: Animals were weighed before administration and tumor volumes were measured. Randomized grouping was based on tumor volumes (randomized block design).
Experimental indicators: were used to examine whether tumor growth was inhibited, delayed or cured. The tumor diameter was measured twice a week with a vernier caliper. The calculation equation for tumor volumes is: V=0.5a×b^2, where a and b represent the major and minor diameters of the tumor, respectively.
The antitumor efficacy of the compound was evaluated by TGI (%) or tumor proliferation rate T/C (%). TGI (%) reflects the tumor growth inhibition. Calculation of TGI (%): TGI (%)=[1−(average tumor volume at the end of administering in a treatment group-average tumor volume at the start of administering in this treatment group)/(average tumor volume at the end of treatment in the solvent control group-average tumor volume at the start of treatment in the solvent control group)]×100%.
Tumor proliferation rate T/C (%): The calculation equation is as follows: T/C (%)=Ti/Vi×100%. Where Vi is the average tumor volume of the solvent control group at a certain measurement, and Ti is the average tumor volume of the treatment group at the same measurement. […]

Which “tumor growth inhibition (TGI)” value (25-day study, compound D 1 mg/kg oral once daily, anti-PD-1 antibody 5 mg/kg intraperitoneal, C3H mice, DUNN tibial orthotopic model) does the source give for `CN(C(=O)c1cc2c(cc1F)nc(N)c1cncn12)[C@@H]1COc2cc(C(F)(F)F)ccc21` [Compound D] here?
Its value is 30.9%.

What about the “Tumor volume (mean)” value (Day 0, C3H mice) of the same compound?
The value was 21.6 mm^3.

What about the “Tumor volume (mean)” value (Day 4, C3H mice) of the same compound?
The value was 35.7 mm^3.

What about the “Tumor volume (mean)” value (Day 7, C3H mice) of the same compound?
The value was 41.3 mm^3.

And the “Tumor volume (mean)” value (Day 10, C3H mice)?
The value was 52.2 mm^3.

What about the “Tumor volume (mean)” value (Day 14, C3H mice) of the same compound?
Its value is 68.7 mm^3.

What about the “Tumor volume (mean)” value (Day 18, C3H mice) of the same compound?
The value was 85.2 mm^3.

And the “Tumor volume (mean)” value (Day 21, C3H mice)?
Its value is 136.9 mm^3.

What about the “Tumor volume (mean)” value (Day 25, C3H mice) of the same compound?
Its value is 225.6 mm^3.

And the “statistical significance (P) vs. control” value (one-way ANOVA, 25-day study, same doses)?
The value was “did not reach statistical significance”.
